From patent US8697629B2, “Modulation of intracellular signaling” (Angstrom Pharmaceuticals, Inc., priority 2010, dated 2014)

How the values were obtained:
Type in all cases: cell-based
SKOV3 cells = assay: Boyden chamber chemotaxis/migration of SKOV3 cells; settings: SKOV3
Experimental: A2780 (FIG. 10a) and SKOV3 (FIG. 10b) cells were incubated with the indicated concentrations of Å6 peptide for 30 min at 37° C. Aliquots representing 6,000 cells were placed on quadruplicate, CnI-coated filters (8 μm pores) in Boyden chambers and the cells allowed to migrate overnight in response to 10 ng/ml VEGF in NIH3T3-conditioned media containing the indicated concentrations of Å6. Upon completion of migration, the apical surfaces of the membranes were wiped clean and the migrating cells on the basal surface were stained with Geimsa stain and the cells present in representative fields of the membranes counted. Data represent the averages+/−standard deviations obtained from the replicate filters. […] This provides further confirmation that CD44 is the target for the Å6 peptide.
SKOV3 cells are harvested by trypsinization and washed once with RPMI−0.5% BSA. Next, the cells are re-suspended in RPMI+0.5% BSA @ 6E4/mL (6000 cells/100 μL). The peptide is pre-treated with 500 μL of cells added to 500 μL peptide NASAPPEE (2× concentration, final conc. at 100, 10, 1, 0.1, 0.01, 0.001 uM) and the mixture incubated 30 minutes at 37° C., under 5% CO2. The Boyden chamber is assembled by: Placing in the bottom chambers: 220 μL of serum/BSA free DMEM or NIH3T3CM+10 ng/ml VEGF or NIH3T3CM+10 ng/ml VEGF+peptide. Place 8 μm filters on the top of the bottom chambers. The 8 μm filters are coated with 1 mg/ml collagen I at 4° C. overnight, washed with PBS twice, air dry before use. Add 200 μL of cells with or without peptide pretreatment to the top of Boyden chamber. Note that the peptide is in both top and bottom chambers. Cells migrate overnight at 37° C., under 5% CO2 in incubator. Next, Boyden chambers are disassembled the and filters collected. The cells on the filters after collection are treated with −20° C. methanol for 3 minutes at room temperature and stained with 30% Geimsa for 7 minutes at room temperature, and washed with water twice. The filters are mounted on slides, air dried and the cells counted.
Cell numbers were obtained by counting the cells in four fields of filters using a 40× objective. The cells migrating into the bottom chambers were also counted as follows: a) 200 μL fluid in the bottom chamber was transferred to a well of 96-well plate; b) The plate was centrifuged at 1200 rpm for 5 minutes; c) 180 μL of supernatant was removed; d) The cell pellet was resuspended with the remaining 20 μL fluid and the cells counted using a hemocytometer. […] This compares favorably to the Å6 peptide which is effective between 5 μM and 100 nM.

FAK = FAK phosphorylation in SKOV3 cells, immunoblot and densitometry; settings: SKOV3, all conditions; Y397, Y576/577, Y925
Experimental: (§1) Cells were detached from their culture vessels by brief trypsinization, suspended in complete media and centrifuged at 250×g for 10 min at room temperature. The cell pellets were suspended in Dulbeco's phosphate buffered saline (DPBS) and re-centrifuged for a total of three washes. The cells were then re-suspended at 3.33E5/ml in 24 ml of either RPMI containing 0.5% BSA (Sigma Chem. Co. #A0336) (RPMI/BSA) or the conditioned media of growing NIH3T3 fibroblasts (10% FBS in DMEM) supplemented with 10 ng/ml vascular endothelial growth factor (VEGF) (CMN). The cells were then treated with or without 100 ug/ml soluble hyaluronic acid (HA; human umbilical, Calbiochem #385902) for 30 min at 37° C. under 5% CO2. Aliquots representing 2E6 cells were then plated into 10 cm culture dishes and A6 added to yield final concentrations of 0, 10, 100 and 1000 nM. The cells were cultured overnight (18 hr) at 37° C. under 5% CO2.
(§2) After 18 hr of treatment, the media were aspirated from the 10 cm dishes and saved. The plates were washed 3 times with 4 ml of ice-cold DPBS which were pooled with the reserved non-adherent cells. The non-adherent cells were centrifuged at 250×g for 10 min at 4° C., washed twice with cold DPBS, drained and lysed in 50 ul of cold RIPA buffer (ThermoScientific #89901) containing cocktails of broad spectrum phosphatase inhibitors (Calbiochem #524625; used at 2× final concentration) and protease inhibitors (Sigma #P8340) (RIPA/inh.). The 10 cm dishes were drained of remaining wash and the adherent cells lysed by scraping in 200 μL of cold RIPA/inh. For each test condition, the lysates of the non-adherent and adherent populations were combined, vortexed and then centrifuged at 14,000 rpm at 4° C. for 20 min. Aliquots of the cleared lysates were frozen at −80° C. immediately. A small aliquot was reserved for total protein analysis using a BCA Protein Assay Kit (Calbiochem #71285-3).
(§3) Samples representing 20 μg of total protein of each lysate were solubilized in the presence of 50 mM Tris pH 6.8, 10% glycerol, 2% SDS and 100 mM DTT for 5 min at 95° C. and then loaded onto 10-20% acrylamide gels (BioRad #345-0044, Tris-HCl, 1 mm, 26 well, 15 μL/well). Electrophoresis was performed using Laemli electrophoresis buffer (0.1% SDS, 25 mM Tris, 192 mM glycine) at 200 V, constant voltage, for one hour. Upon completion of electrophoresis, the proteins were transferred to Immun-Blot PVDF membranes (BioRad #162-0238) in ice-cold 20% methanol in 25 mM Tris, 192 mM glycine for 2 hr at 0.5 Amps, constant current/blotting apparatus. […]
(§4) The integrated densities (id) of the bands of interest were measured using Image J software (NIH). […]

ERK 1/2 = ERK 1/2 phosphorylation (T202/Y204) in SKOV3 cells, immunoblot; settings: basal media (RPMI/BSA)
Experimental: as §1, §2
(§5) Samples representing 20 μg of total protein of each lysate were solubilized in the presence of 50 mM Tris pH 6.8, 10% glycerol, 2% SDS and 100 mM DTT for 5 min at 95° C. and then loaded onto 10-20% acrylamide gels (BioRad #345-0044, Tris-HCl, 1 mm, 26 well, 15 μL/well). Electrophoresis was performed using Laemli electrophoresis buffer (0.1% SDS, 25 mM Tris, 192 mM glycine) at 200 V, constant voltage, for one hour. Upon completion of electrophoresis, the proteins were transferred to Immun-Blot PVDF membranes (BioRad #162-0238) in ice-cold 20% methanol in 25 mM Tris, 192 mM glycine for 2 hr at 0.5 Amps, constant current/blotting apparatus. The membranes were then cut vertically between molecular weight markers and in half at the 64 kDa marker to generate pieces for screening of higher molecular weight proteins (e.g., FAK) and lower molecular weight proteins (e.g., MEK and GAPDH). The blots were then blocked for a minimum of 4 hrs at room temperature in 3% bovine serum albumin (Sigma A0336) in 50 mM Tris, pH 7.4, 145 mM NaCl, 0.05% Tween-20 (TTBS) containing 0.05% sodium azide.
Upon completion of the primary antibody incubation, the blots were washed three times for 10 min in TTBS and then incubated with 1/25,000 dilutions of peroxidase-conjugated donkey anti-mouse IgG (Jackson ImmunoResearch #715-035-150) or peroxidase-conjugated donkey anti-rabbit IgG (Jackson ImmunoResearch #711-035-152) in TTBS containing 3% BSA for one hour at room temperature. […]

MEK = MEK phosphorylation (S217/221) in SKOV3 cells, immunoblot and densitometry
Experimental: as §1, §2, §3, §4

PKCalpha = PKCalpha phosphorylation in SKOV3 cells, immunoblot
Experimental: as §1, §2
as §5, with “The blots were then blocked for a minimum of 4 hrs at room temperature in 3% bovine serum albumin (Sigma A0336) in 50 mM Tris, pH 7.4, 145 mM NaCl, 0.05% Tween-20 (TTBS) containing 0.05% sodium azide.” left out

| Substance | cell migration inhibition, lower end of effective concentration range (SKOV3 cells) | cell migration inhibition, upper end of effective concentration range (SKOV3 cells) | pFAK/FAK ratios (FAK) | pERK/Erk (ERK 1/2) | total MEK levels (MEK) | pMEK/MEK (MEK; under all conditions) | pPCKa/PKCa (PKCalpha) |
| --- | --- | --- | --- | --- | --- | --- | --- |
| NASAPPEE (peptide which potentiates the binding of CD44 polypeptide expressing cells to hyaluronic acid (HA)) [corresponds to amino acids 120-127 of CD44] | 1 nM | 100 µM | – | – | – | – | – |
| hyaluronic acid [HA, reference compound] | – | – | reduced | increased | appears to have decreased | increased | appears to have enhanced |
